The values that follow come from patent US3982931A, “N,N-di-sec.butyl-benzamide herbicides” (priority 1967, dated 1976).

What all share (experiment): herbicidal activity, soil treatment one day after sowing
What all share (format): in vivo

For assay [1], the system named is amaranthus retroflexus L. From the text:
(§1) The infesting species and the agrarian species have been indicated in Table 1 by letters, as follows:
A = amaranthus retroflexus L.
(§2) Method of evaluation of the results (of tests):
(§3) 1 slight differences with respect to the control;
(§4) 3 = considerable activity with damages that definitely impair the further development of most of the small plants; an activity degree already useful for practical purposes;
(§5) 4 = maximum of activity with lack of germination or total containment of the small plants in the emerging stage.
(§6) In the case of an intermediate activity between two classes of the scale, both values are recorded with the one which corresponds to the preeminent activity preceding.
(§7) TABLE 2 reports the activity data of other compounds that fall within the class which is the object of this invention.
(§8) TABLE 3 reports data on the herbicidal activity against infesting herbs, while TABLE 4 reports data concerning the activity on useful species of agricultural cultivations. These tables employ the criterion explained previously. […]

Another assay concerns vicia sativa L.
Excerpt: as §1, §2, §3, §4, §5, §6, §7

A further assay concerns setaria glauca L.
Excerpt: as §1, §2, §3, §4, §5
In the case of an intermediate activity between two classes of the scale, both values are recorded with the one which corresponds to the preeminent activity preceding. […]
as §8

A further assay has as its system artemisia vulgaris L.
Excerpt: as §1
B = artemisia vulgaris L.
as §2, §3, §4, §5, §6, §7, §8

Assay [2] concerns echinocloa crus-galli R.S.
Excerpt: as §1
D = echinocloa crus-galli R.S.
as §2, §3, §4, §5, §6, §7, §8

Another assay has as its system chenopodium album L.
Excerpt: as §1, §2, §3, §4, §5, §6, §7, §8

Molecules are shown by their SMILES.

For `C=CCN(CC=C)C(=O)c1cccc(Br)c1` [PA499, 3-bromo-N,N-di-allyl-benzamide, reference compound], the “activity on A, 0-4 scale” value in assay [1] (4 kg/ha) is 2-3. Besides, the figures for the “activity on F, 0-4 scale” value in the assay on vicia sativa L. (4 kg/ha) and in the assay with vicia sativa L. (6 kg/ha) were 1 and 3, respectively. Moreover, the figures for the “activity on E, 0-4 scale” value in the assay with setaria glauca L. (4 kg/ha) and in the assay on setaria glauca L. (6 kg/ha) were 2 and 3, respectively. For the same molecule, the “activity on B, 0-4 scale” value with artemisia vulgaris L. (4 kg/ha) and with artemisia vulgaris L. (6 kg/ha) was 3 each time. Besides, the “activity on D, 0-4 scale” value worked out at 1 in assay [2] (4 kg/ha) and 3 in assay [2] (6 kg/ha). For the same molecule, the “activity on C, 0-4 scale” value with chenopodium album L. (4 kg/ha) is 2; in the assay on chenopodium album L. (6 kg/ha), 3.
Turning to `CCN(CC)C(=O)c1cccc(C)c1` [PA383, 3,methyl-N,N-diethyl-benzamide, reference compound], the “activity on A, 0-4 scale” value in assay [1] (6 kg/ha) worked out at 2. Besides, the “activity on F, 0-4 scale” value in the assay with vicia sativa L. (6 kg/ha) was found to be 2. Also, the “activity on E, 0-4 scale” value with setaria glauca L. (6 kg/ha) is given as 0-1. In addition, in the assay on artemisia vulgaris L. (6 kg/ha), the “activity on B, 0-4 scale” value turned out to be 3. Besides, in assay [2] (6 kg/ha), the “activity on D, 0-4 scale” value is 0-1. Also, the “activity on C, 0-4 scale” value in the assay on chenopodium album L. (6 kg/ha) amounted to 2.
For the molecule `CCCCN(CCCC)C(=O)c1cccc(C)c1` [PA386, 3,methyl-N,N-di-n.butyl-benzamide, reference compound], the “activity on A, 0-4 scale” value in assay [1] (6 kg/ha) stood at 3. Moreover, the “activity on F, 0-4 scale” value with vicia sativa L. (6 kg/ha) is recorded as 0-1. The “activity on E, 0-4 scale” value in the assay with setaria glauca L. (6 kg/ha) is given as 0-1. Further, the “activity on B, 0-4 scale” value with artemisia vulgaris L. (6 kg/ha) is 1-2. Besides, in assay [2] (6 kg/ha), the “activity on D, 0-4 scale” value is recorded as 0-1. Besides, the “activity on C, 0-4 scale” value with chenopodium album L. (6 kg/ha) is reported as 2-3.
As for `CCC(C)N(C(=O)c1cc(Cl)cc(Br)c1)C(C)CC` (centres unmarked) [PA626, 3-bromo,5-chloro-N,N-di-sec.butyl-benzamide], in assay [1] (6 kg/ha), the “activity on A, 0-4 scale” value is listed as 1-2. In addition, the “activity on F, 0-4 scale” value in the assay with vicia sativa L. (6 kg/ha) amounted to 0. Moreover, the “activity on E, 0-4 scale” value with setaria glauca L. (6 kg/ha) is 4. The “activity on B, 0-4 scale” value in the assay with artemisia vulgaris L. (6 kg/ha) is reported as 0-1. For the same molecule, the “activity on D, 0-4 scale” value in assay [2] (6 kg/ha) is on record as 3-4. Also, the “activity on C, 0-4 scale” value in the assay on chenopodium album L. (6 kg/ha) was 0-1.
Consider `CCCC(C)N(C(=O)c1ccc(Cl)c(Cl)c1)C(C)CC` (centres unmarked) [PA634, 3,4-dichloro-N-sec.amyl,N-sec.butyl-benzamide], for which, in assay [1] (6 kg/ha), the “activity on A, 0-4 scale” value was determined as 2. Besides, the “activity on F, 0-4 scale” value in the assay on vicia sativa L. (6 kg/ha) is reported as 0. For the same molecule, the “activity on E, 0-4 scale” value in the assay with setaria glauca L. (6 kg/ha) is 3-4. The “activity on B, 0-4 scale” value in the assay with artemisia vulgaris L. (6 kg/ha) was 2. For the same molecule, the “activity on D, 0-4 scale” value in assay [2] (6 kg/ha) is 3. In addition, the “activity on C, 0-4 scale” value with chenopodium album L. (6 kg/ha) is 1-2.
On to `CCC(C)N(C(=O)c1cc(Cl)c(Cl)c(Cl)c1)C(C)CC` (centres unmarked) [PA621, 3,4,5-trichloro-N,N-di-sec.butyl-benzamide], for which, in assay [1] (6 kg/ha), the “activity on A, 0-4 scale” value is recorded as 2. Moreover, the “activity on F, 0-4 scale” value in the assay with vicia sativa L. (6 kg/ha) turned out to be 0. The “activity on E, 0-4 scale” value in the assay on setaria glauca L. (6 kg/ha) turned out to be 4. The “activity on B, 0-4 scale” value in the assay with artemisia vulgaris L. (6 kg/ha) came to 2. Also, the “activity on D, 0-4 scale” value in assay [2] (6 kg/ha) amounted to 4. For the same molecule, in the assay on chenopodium album L. (6 kg/ha), the “activity on C, 0-4 scale” value came to 2.
On to `O=C(O)c1cccc(Cl)c1` [PA439, 3,chloro-benzoic acid, reference compound], for which the “activity on A, 0-4 scale” value in assay [1] (6 kg/ha) is 0. Besides, the “activity on F, 0-4 scale” value in the assay with vicia sativa L. (6 kg/ha) is recorded as 0. For the same molecule, the “activity on E, 0-4 scale” value in the assay on setaria glauca L. (6 kg/ha) came out at 0. Moreover, the “activity on B, 0-4 scale” value in the assay on artemisia vulgaris L. (6 kg/ha) worked out at 0. For the same molecule, in assay [2] (6 kg/ha), the “activity on D, 0-4 scale” value was 0. Also, in the assay with chenopodium album L. (6 kg/ha), the “activity on C, 0-4 scale” value is reported as 0.
With `CCC(C)N(C(=O)c1ccc(F)c(Br)c1)C(C)CC` (centres unmarked) [PA518, 3-bromo,4-fluoro-N,N-di-sec.butyl-benzamide], in assay [1] (6 kg/ha), the “activity on A, 0-4 scale” value came out at 2. Further, in the assay on vicia sativa L. (6 kg/ha), the “activity on F, 0-4 scale” value was 0. Also, the “activity on E, 0-4 scale” value with setaria glauca L. (6 kg/ha) stood at 4. The “activity on B, 0-4 scale” value in the assay on artemisia vulgaris L. (6 kg/ha) turned out to be 3. In assay [2] (6 kg/ha), the “activity on D, 0-4 scale” value was 3-4. In addition, the “activity on C, 0-4 scale” value in the assay on chenopodium album L. (6 kg/ha) came out at 3.
For the molecule `CCCCN(CCCC)C(=O)c1cc(Cl)cc(Cl)c1` [PA294, 3,5-dichloro-N,N-di-n.butyl-benzamide, reference compound], the “activity on A, 0-4 scale” value in assay [1] (6 kg/ha) is 0-1. In addition, the “activity on F, 0-4 scale” value in the assay with vicia sativa L. (6 kg/ha) came to 0. Further, the “activity on E, 0-4 scale” value with setaria glauca L. (6 kg/ha) is reported as 3. For the same molecule, in the assay with artemisia vulgaris L. (6 kg/ha), the “activity on B, 0-4 scale” value is listed as 0-1. Besides, the “activity on D, 0-4 scale” value in assay [2] (6 kg/ha) is listed as 2. In addition, the “activity on C, 0-4 scale” value in the assay with chenopodium album L. (6 kg/ha) is 1.
For the molecule `CCC(C)N(C(=O)c1c(Cl)cc(Cl)cc1Cl)C(C)CC` (centres unmarked) [PA633, 2,4,6-trichloro-N,N-di-sec.butyl-benzamide], the “activity on A, 0-4 scale” value in assay [1] (6 kg/ha) was found to be 2. Moreover, the “activity on F, 0-4 scale” value in the assay on vicia sativa L. (6 kg/ha) is 0. Also, the “activity on E, 0-4 scale” value with setaria glauca L. (6 kg/ha) worked out at 4. The “activity on B, 0-4 scale” value with artemisia vulgaris L. (6 kg/ha) is 2-3. In assay [2] (6 kg/ha), the “activity on D, 0-4 scale” value came out at 4. In addition, in the assay on chenopodium album L. (6 kg/ha), the “activity on C, 0-4 scale” value was 2-3.
On to `CCCCN(CCCC)C(=O)c1ccc(Cl)cc1Cl` [PA282, 2,4-dichloro-N,N-di-n.butyl-benzamide, reference compound], for which the “activity on A, 0-4 scale” value in assay [1] (6 kg/ha) is recorded as 2. In addition, the “activity on F, 0-4 scale” value with vicia sativa L. (6 kg/ha) was 0-1. The “activity on E, 0-4 scale” value in the assay on setaria glauca L. (6 kg/ha) is reported as 1. Further, the “activity on B, 0-4 scale” value with artemisia vulgaris L. (6 kg/ha) is given as 0. The “activity on D, 0-4 scale” value in assay [2] (6 kg/ha) is recorded as 1. For the same molecule, the “activity on C, 0-4 scale” value in the assay on chenopodium album L. (6 kg/ha) worked out at 2.
On to `CCC(C)N(C(=O)c1ccc(Br)c(Br)c1)C(C)CC` (centres unmarked) [PA484, 3,4-dibromo-N,N-di-sec.butyl-benzamide], for which the “activity on A, 0-4 scale” value in assay [1] (4 kg/ha) is given as 1-2; in assay [1] (6 kg/ha) it was 2-3. The “activity on F, 0-4 scale” value with vicia sativa L. (4 kg/ha) and in the assay on vicia sativa L. (6 kg/ha) was 0 each time. For the same molecule, the “activity on E, 0-4 scale” value in the assay with setaria glauca L. (4 kg/ha) is recorded as 3; with setaria glauca L. (6 kg/ha) it was 4-3. Besides, the entries for the “activity on B, 0-4 scale” value in the assay with artemisia vulgaris L. (4 kg/ha) and with artemisia vulgaris L. (6 kg/ha) were 1 and 2-3, respectively. The entries for the “activity on D, 0-4 scale” value in assay [2] (4 kg/ha) and in assay [2] (6 kg/ha) were 3 and 3-4, respectively. Further, the “activity on C, 0-4 scale” value in the assay on chenopodium album L. (4 kg/ha) was 1; with chenopodium album L. (6 kg/ha), 2.
Take `CCC(C)N(C(=O)c1ccc(Br)c(I)c1)C(C)CC` (centres unmarked) [PA619, 3-iodo,4-bromo-N,N-di-sec.butyl-benzamide]: the “activity on A, 0-4 scale” value in assay [1] (6 kg/ha) is on record as 0-1. Further, the “activity on F, 0-4 scale” value in the assay on vicia sativa L. (6 kg/ha) worked out at 0. For the same molecule, the “activity on E, 0-4 scale” value with setaria glauca L. (6 kg/ha) came to 3. For the same molecule, the “activity on B, 0-4 scale” value in the assay with artemisia vulgaris L. (6 kg/ha) was 0. For the same molecule, in assay [2] (6 kg/ha), the “activity on D, 0-4 scale” value was found to be 3. For the same molecule, the “activity on C, 0-4 scale” value in the assay on chenopodium album L. (6 kg/ha) is on record as 0-1.
